Laboratory results taken from patent US20210393645A1, “TREATMENT FOR PROGRESSIVE MULTIPLE SCLEROSIS” (UTI LIMITED PARTNERSHIP, priority 2016, published 2021).
Where a name gives a salt, the structure may show the parent alone.

The molecules below were run on human neurons (assay: Iron (FeSO4) mediated neurotoxicity screening, MAP-2 positive neurons counted). Conditions: not given.
Type: cell-based
Experimental: Human neurons were isolated from brain tissues of therapeutically aborted 15-20 week old fetuses, in accordance with ethics approval of the University of Calgary ethics committee, after written informed consent of the pregnant donors. Neurons were isolated as previously described (Vecil et al., 2000) brain specimens were washed in phosphate buffered saline (PBS) to remove blood, followed by removal of meninges. […] Thereafter, the digestion was stopped by addition of 4 ml fetal calf serum (FCS). […] Cells were cultured in feeding medium of minimal essential medium (MEM) supplemented with 10% fetal bovine serum (FBS), 1 μM sodium pyruvate, 10 μM glutamine, 1× non-essential amino acids, 0.1% dextrose and 1% penicillin/streptomycin (all culture supplements from Invitrogen, Burlington, Canada). […] For experiments, the neuron-enriched cultures were retrypsinized and cells were plated in poly-L-ornithine pre-coated 96-well plates at a density of 100,000 cells/well in 100 μl of the complete medium supplemented with cytosine arabinoside. […] All conditions were performed in quadruplicates. A day later cells were fixed using 4% paraformaldehyde (PFA) and stored in PBS in 4° C.
Briefly, there were 80 compounds located in specific wells on each plate (e. g. B07). […] Each compound was supplied at a concentration of 10 mM dissolved in DMSO.
After filtering with a 0.2 μm filter, FeSO4 was added to cells in a final concentration of 25-50 μM in a volume of 50 μl medium to the cells. Rotenone was dissolved in dimethyl sulfoxide (DMSO) and used in a final concentration of 10 μM.
Staining was performed at room temperature. A blocking buffer was first introduced for 1 h followed by incubation with primary antibody overnight in 4° C.
Cell nuclei were stained with Hoechst S769121 (nuclear yellow). Cells were stored in 4° C. in the dark before imaging.
Images were taken using the automated ImageXpress® imaging system (Molecular Devices, Sunnyvale, Calif.) through a 10x objective microscope lens, displaying 4 or 9 sites per well. […] Cells were defined according to fluorescence intensity and size at different wavelengths. Data from all sites per well were averaged to one data point.
Neurons were pre-incubated with each compound for 1 h followed by application of FeSO4.

Structure (SMILES)	Drug % control (mean): number of neurons normalized to untreated control [%]
CC(C)[N+]1(C)[C@@H]2CC[C@H]1CC(OC(=O)C(CO)c1ccccc1)C2.[Br-] (stereo partly shown) [IPRATROPIUM BROMIDE]	63.39

Same assay, conditions: Homo sapiens, Neuron, 24 h, read-out: Drug % control (mean): number of neurons normalized to untreated control

Structure (SMILES)	viability at 10 µM [%]
CC[C@H](C)C(=O)O[C@H]1C[C@@H](C)C=C2C=C[C@H](C)[C@H](CC[C@@H]3C[C@@H](O)CC(=O)O3)[C@H]21 [LOVASTATIN]	32.2

Same assay, conditions: Homo sapiens, Neuron; drug 10 μM 1 h before FeSO4 25 or 50 μM; MAP-2 neurons after 24 h; read-out: Drug % control (mean): number of neurons normalized to untreated control

Structure (SMILES)	viability at 10 µM [%]
CC(C)N(CCC(C(N)=O)(c1ccccc1)c1ccccn1)C(C)C (stereo not shown) [DISOPYRAMIDE PHOSPHATE]	4.63
C[C@H]1c2cccc(O)c2C(=O)C2=C(O)[C@]3(O)C(=O)C(C(N)=O)=C(O)[C@@H](N(C)C)[C@@H]3[C@@H](O)[C@@H]21 [DOXYCYCLINE HYDROCHLORIDE]	12.7
CC[N+](C)(C)c1cccc(O)c1 [EDROPHONIUM CHLORIDE]	44
CCOC(=O)[C@H](CCc1ccccc1)N[C@@H](C)C(=O)N1CCC[C@H]1C(=O)O [ENALAPRIL MALEATE]	41
C[C@@H](CO)NC(=O)[C@@H]1C=C2c3cccc4[nH]cc(c34)C[C@H]2N(C)C1 [ERGONOVINE MALEATE]	42.7
CCC(=O)O[C@H]1[C@H](O[C@@H]2[C@@H](C)[C@H](O[C@H]3C[C@@](C)(OC)[C@@H](O)[C@H](C)O3)[C@@H](C)C(=O)O[C@H](CC)[C@@](C)(O)[C@H](O)[C@@H](C)C(=O)[C@H](C)C[C@@]2(C)O)O[C@H](C)C[C@@H]1N(C)C [ERYTHROMYCIN ESTOLATE]	56.7
CCC1(C)CC(=O)NC1=O (stereo not shown) [ETHOSUXIMIDE]	74.3
CCc1cccc2c3c([nH]c12)C(CC)(CC(=O)O)OCC3 (stereo not shown) [ETODOLAC]	34.4
O=C1[C@H](CC[C@H](O)c2ccc(F)cc2)[C@@H](c2ccc(O)cc2)N1c1ccc(F)cc1 [EZETIMIBE]	50.5
CC(=O)OCC(CCn1cnc2cnc(N)nc21)COC(C)=O [FAMCICLOVIR]	91
CNCCC(Oc1ccc(C(F)(F)F)cc1)c1ccccc1 (stereo not shown) [FLUOXETINE]	81.4
OCCN1CCN(CCCN2c3ccccc3Sc3ccc(C(F)(F)F)cc32)CC1 [FLUPHENAZINE HYDROCHLORIDE]	12.1
CC(C(=O)O)c1ccc(-c2ccccc2)c(F)c1 (stereo not shown) [FLURBIPROFEN]	4.63
C[C@@H]1O[C@@H]1P(=O)(O)O [FOSFOMYCIN]	31.2
NS(=O)(=O)c1cc(C(=O)O)c(NCc2ccco2)cc1Cl [FUROSEMIDE]	3.96
Cc1ccc(C)c(OCCCC(C)(C)C(=O)O)c1 [GEMFIBROZIL]	5.05
Cc1ccc(S(=O)(=O)NC(=O)NN2CC3CCCC3C2)cc1 (stereo not shown) [GLICLAZIDE]	47.3
COc1ccc(Cl)cc1C(=O)NCCc1ccc(S(=O)(=O)NC(=O)NC2CCCCC2)cc1 [GLYBURIDE]	45.2
COc1ccccc1OCC(O)CO (stereo not shown) [GUAIFENESIN]	3.28
O=C(CCCN1CCC(O)(c2ccc(Cl)cc2)CC1)c1ccc(F)cc1 [HALOPERIDOL]	6.12

Structure (SMILES)	viability at 10 µM [%]
CCCCCCc1ccc(O)cc1O [HEXYLRESORCINOL]	71.5
CN1CCC(OC(c2ccccc2)c2ccccc2)CC1 [HYDROCHLORIDE]	4.61
NS(=O)(=O)c1cc2c(cc1Cl)NCNS2(=O)=O [HYDROCHLOROTHIAZIDE]	2.55
CCN(CCO)CCCC(C)Nc1ccnc2cc(Cl)ccc12 (stereo not shown) [HYDROXYCHLOROQUINE SULFATE]	75.9
NC(=O)NO [HYDROXYUREA]	3.31
OCCOCCN1CCN(C(c2ccccc2)c2ccc(Cl)cc2)CC1 (stereo not shown) [HYDROXYZINE PAMOATE]	4.01
CC(C)Cc1ccc(C(C)C(=O)O)cc1 (stereo not shown) [IBUPROFEN]	2.48
COc1ccc2c(c1)c(CC(=O)O)c(C)n2C(=O)c1ccc(Cl)cc1 [INDOMETHACIN]	4.52
NNC(=O)c1ccncc1 [ISONIAZID]	2.41
CC(C(=O)O)c1cccc(C(=O)c2ccccc2)c1 (stereo not shown) [KETOPROFEN]	44.3
O=C(c1ccccc1)c1ccc2n1CCC2C(=O)O (stereo not shown) [KETOROLAC TROMETHAMINE]	52.4
CN1CCC(=C2c3ccccc3CC(=O)c3sccc32)CC1 [KETOTIFEN FUMARATE]	1.77
Cc1c(OCC(F)(F)F)ccnc1C[S+]([O-])c1nc2ccccc2[nH]1 (stereo not shown) [LANSOPRAZOLE]	63.9
N[C@@H](Cc1ccc(O)c(O)c1)C(=O)O [LEVODOPA]	81.2
C[C@H]1COc2c(N3CCN(C)CC3)c(F)cc3c(=O)c(C(=O)O)cn1c23 [LEVOFLOXACIN]	56.4
CN(C)C(=O)C(CCN1CCC(O)(c2ccc(Cl)cc2)CC1)(c1ccccc1)c1ccccc1 [LOPERAMIDE HYDROCHLORIDE]	55.5
CCOC(=O)N1CCC(=C2c3ccc(Cl)cc3CCc3cccnc32)CC1 [LORATADINE]	44.3
CN1CCN(C2=Nc3ccccc3Oc3ccc(Cl)cc32)CC1 [LOXAPINE SUCCINATE]	65.9
CNCCCC12CCC(c3ccccc31)c1ccccc12 [MAPROTILINE HYDROCHLORIDE]	0.61
COC(=O)Nc1nc2ccc(C(=O)c3ccccc3)cc2[nH]1 [MEBENDAZOLE]	2.48

Structure (SMILES)	viability at 10 µM [%]
Cc1cccc(Nc2ccccc2C(=O)O)c1C [MEFENAMIC ACID]	57.2
Cc1cnc(NC(=O)C2=C(O)c3ccccc3S(=O)(=O)N2C)s1 [MELOXICAM]	59.5
S=c1nc[nH]c2nc[nH]c12 [MERCAPTOPURINE]	1.73
CC(=O)/N=c1/sc(S(N)(=O)=O)nn1C [METHAZOLAMIDE]	54.3
C1N2CN3CN1CN(C2)C3 [METHENAMINE]	1.94
COc1ccccc1OCC(O)COC(N)=O (stereo not shown) [METHOCARBAMOL]	0.84
CN(Cc1cnc2nc(N)nc(N)c2n1)c1ccc(C(=O)N[C@@H](CCC(=O)O)C(=O)O)cc1 [METHOTREXATE]	43.3
COc1c2occc2cc2ccc(=O)oc12 [METHOXSALEN]	59
CCN(CC)CCNC(=O)c1cc(Cl)c(N)cc1OC [METOCLOPRAMIDE HYDROCHLORIDE]	37.9
Cc1ccccc1N1C(=O)c2cc(S(N)(=O)=O)c(Cl)cc2NC1C (stereo not shown) [METOLAZONE]	69
COCCc1ccc(OCC(O)CNC(C)C)cc1 (stereo not shown) [METOPROLOL TARTRATE]	71.5
Cc1ncc([N+](=O)[O-])n1CCO [METRONIDAZOLE]	27.1
Nc1cc(N2CCCCC2)nc(N)[n+]1[O-] [MINOXIDIL]	33.7
NC(=O)C[S+]([O-])C(c1ccccc1)c1ccccc1 (stereo not shown) [MODAFINIL]	43.9
COc1c(C)c2c(c(O)c1C/C=C(\C)CCC(=O)O)C(=O)OC2 [MYCOPHENOLIC ACID]	45.7
COc1ccc2cc(CCC(C)=O)ccc2c1 [NABUMETONE]	48.9
C=CCN1CC[C@]23c4c5ccc(O)c4O[C@H]2C(=O)CC[C@@]3(O)[C@H]1C5 [NALOXONE HYDROCHLORIDE]	69.5
O=C1CC[C@@]2(O)[C@H]3Cc4ccc(O)c5c4[C@@]2(CCN3CC2CC2)[C@H]1O5 [NALTREXONE HYDROCHLORIDE]	39.5

Same assay, conditions: drug 10 μM 1 h before FeSO4 25 or 50 μM; MAP-2 neurons after 24 h

Structure (SMILES)	Drug % control (mean): number of neurons normalized to untreated control [%]
Nc1nc(=O)c2c([nH]1)NCC(CNc1ccc(C(=O)N[C@@H](CCC(=O)[O-])C(=O)[O-])cc1)N2C=O.[Ca+2] (stereo partly shown) [LEUCOVORIN CALCIUM]	24.84
